What was measured:
Format in all cases: functional
BT-549 = assay: Cytotoxicity against human BT549 cells assessed as cellular growth at 10 uM by SRB assay
Hs-578T = assay: Cytotoxicity against human Hs578T cells assessed as cellular growth at 10 uM by SRB assay
MCF7 = assay: Cytotoxicity against human MCF7 cells assessed as cellular growth at 10 uM by SRB assay
DU-145 = assay: Cytotoxicity against human DU145 cells assessed as cellular growth at 10 uM by SRB assay
ACHN = assay: Cytotoxicity against human ACHN cells assessed as cellular growth at 10 uM by SRB assay
OVCAR-8 = assay: Cytotoxicity against human OVCAR8 cells assessed as cellular growth at 10 uM by SRB assay
OVCAR-3 = assay: Cytotoxicity against human OVCAR3 cells assessed as cellular growth at 10 uM by SRB assay
UACC-62 = assay: Cytotoxicity against human UACC62 cells assessed as cellular growth at 10 uM by SRB assay
UACC-257 = assay: Cytotoxicity against human UACC257 cells assessed as cellular growth at 10 uM by SRB assay
SK-MEL-5 = assay: Cytotoxicity against human SK-MEL-5 cells assessed as cellular growth at 10 uM by SRB assay
SK-MEL-28 = assay: Cytotoxicity against human SK-MEL-28 cells assessed as cellular growth at 10 uM by SRB assay
M14 = assay: Cytotoxicity against human M14 cells assessed as cellular growth at 10 uM by SRB assay
Malme-3M = assay: Cytotoxicity against human MALME-3M cells assessed as cellular growth at 10 uM by SRB assay
SNB-75 = assay: Cytotoxicity against human SNB75 cells assessed as cellular growth at 10 uM by SRB assay
HT-29 = assay: Cytotoxicity against human HT-29 cells assessed as cellular growth at 10 uM by SRB assay
NCI-H322M = assay: Cytotoxicity against human NCI-H322M cells assessed as cellular growth at 10 uM by SRB assay
NCI-H23 = assay: Cytotoxicity against human NCI-H23 cells assessed as cellular growth at 10 uM by SRB assay
EKVX = assay: Cytotoxicity against human EKVX cells assessed as cellular growth at 10 uM by SRB assay
MOLT-4 = assay: Cytotoxicity against human MOLT4 cells assessed as cellular growth at 10 uM by SRB assay
RPMI-8226 = assay: Cytotoxicity against human RPMI8226 cells assessed as cellular growth at 10 uM by SRB assay

SMILES | Activity (BT-549) [%] | Activity (Hs-578T) [%] | Activity (MCF7) [%] | Activity (DU-145) [%] | Activity (ACHN) [%] | Activity (OVCAR-8) [%] | Activity (OVCAR-3) [%] | Activity (UACC-62) [%] | Activity (UACC-257) [%] | Activity (SK-MEL-5) [%] | Activity (SK-MEL-28) [%] | Activity (M14) [%] | Activity (Malme-3M) [%] | Activity (SNB-75) [%] | Activity (HT-29) [%] | Activity (NCI-H322M) [%] | Activity (NCI-H23) [%] | Activity (EKVX) [%] | Activity (MOLT-4) [%] | Activity (RPMI-8226) [%]
COc1cc(/C=c2/sc3nc4ccccc4n3c2=O)cc(I)c1O | 102.32 | 107.68 | 93.11 | 102.39 | 107.3 | 97.39 | 97.63 | 79.91 | 105.01 | 81.43 | 111.82 | 107.28 | 109 | 114.58 | 104.58 | 109.21 | 94.22 | 92.52 | 78.31 | 74.12
Cc1ccc(NC(=O)c2sc3nc(-c4cccs4)ccc3c2N)cc1C | 133.54 | 110.72 | 109.1 | 103.5 | 125.53 | 102.12 | 98.63 | 89.05 | 106.65 | 98.52 | 113.95 | 114.64 | 118.51 | 111.99 | 94.6 | 123.82 | 111.92 | 103.49 | 80.3 | 103.98
CC1(C)CC(=O)c2cc3c(N)c(C(=O)NCc4ccccc4)sc3nc2C1 | 110.98 | 123.14 | 87.02 | 113.73 | 102.79 | 95.57 | 115.21 | 102.76 | 104.6 | 91.1 | 102.38 | 98.42 | 104.51 | 98.33 | 106.09 | 101.83 | 97.31 | 108.91 | 124.23 | 101.22
O=C(Nc1nc2ccc(Cl)cc2s1)c1ccc(Cl)cc1Cl | 111.68 | 113.99 | 98.4 | 108.4 | 109.65 | 97.79 | 109.17 | 96.19 | 95.43 | 89.76 | 107.5 | 115.13 | 109.41 | 114.42 | 94.25 | 105.38 | 99 | 82.69 | 93.88 | 91.09
O=C(Nc1nc2ccccc2s1)c1ccc(F)cc1 | 109.49 | 140.08 | 68.1 | 108.3 | 98.03 | 109.5 | 103.91 | 89.52 | 107.84 | 91.3 | 113.63 | 109.51 | 96.2 | 96.73 | 108.47 | 92.49 | 89.91 | 77.77 | 100.31 | 88.45
COc1ccc2[nH]c(C(=O)NCc3ccccc3)cc2c1 | 104.33 | 112.57 | 83.2 | 111.13 | 94.48 | 102.92 | 112.21 | 91.05 | 103.04 | 97.92 | 110.55 | 104.15 | 88.8 | 87.91 | 102.88 | 90.03 | 89.11 | 78.14 | 83.12 | 90.52
O=C(NCc1ccc(Cl)cc1)c1[nH]c2ccccc2c1Cl | 104.79 | 100.36 | 128.42 | 105.86 | 104.7 | 104.08 | 97.31 | 96.15 | 117.15 | 95.97 | 109.03 | 117.92 | 98.93 | 94.33 | 108.03 | 113.2 | 95.58 | 83.18 | 88.19 | 90.9
CC1(C)CCc2cc(-c3ccn(S(=O)(=O)c4cccc(C(F)(F)F)c4)n3)ccc2O1 | 119.64 | 107.85 | 87.68 | 98.46 | 109.2 | 93.92 | 101.58 | 84.21 | 81.69 | 69.29 | 105.56 | 97.31 | 102.22 | 102.76 | 71.22 | 106.64 | 81.53 | 70.44 | 66.45 | 68.84
Oc1ccccc1-c1nc(-c2cccs2)no1 | 92.36 | 93.55 | 56.48 | 114.11 | 98.95 | 102.43 | 108.33 | 89.11 | 96.64 | 88.2 | 115.6 | 106.76 | 105.64 | 90.2 | 111.27 | 116.66 | 94.82 | 89.29 | 99.05 | 87.52
Cc1ccc(NC(=O)c2sc3nc4c(cc3c2N)C(=O)CCC4)c(Br)c1 | 113.85 | 100.84 | 96.02 | 108.79 | 107.36 | 98.57 | 101.82 | 95.44 | 96.22 | 92.03 | 107.72 | 105.12 | 95.81 | 107.29 | 107.12 | 103.11 | 102.24 | 89.55 | 103.27 | 109.86
Cc1ccc(Cl)cc1NC(=O)c1sc2nc3c(cc2c1N)C(=O)CCC3 | 93.5 | 60.85 | 35.55 | 77.37 | 55.94 | 89.97 | 22.12 | 53.09 | 44.88 | 26.98 | 67.01 | 62.9 | 81.13 | 48.01 | 28.78 | 95.72 | 63.04 | 75.28 | 84.85 | 95.05
O=C(Nc1nc2ccc(Cl)cc2s1)c1ccc(Cl)cc1 | 106.78 | 98.57 | 99.61 | 114.57 | 96.94 | 98.61 | 112.95 | 101.97 | 94.31 | 94.67 | 109.14 | 106.22 | 110.45 | 100.74 | 107.3 | 111.02 | 91.71 | 94 | 95.76 | 95.05
